Experimental data: patent EP3974434B1, “MACROLIDE DERIVATIVES, PREPARATION METHOD AND APPLICATION THEREOF” (Zhejiang Hisun Pharmaceutical Co., Ltd., priority 2019, dated 2020)

Experiments:
[1] = system: BAF3 LMNA-TRKA^WT; assay: Cell proliferation assay (CellTiter-Glo), BAF3 LMNA-TRKA WT; type: cell-based; conditions: Mus musculus, 72 hours
Protocol: The following method was used to determine the effects of the compounds of the present invention on cell proliferation. BAF3 cells were purchased from National Infrastructure of Cell Line Resource (Beijing Headquarter). For TRKA, BAF3 cells were used to construct […] stable cell lines of BAF3 LMNA-TRKA^WT and BAF3 LMNA-TRKA^G667C.The above […] cell lines were used to determine the inhibition of the compounds on cell activities. The cells were cultured in an RPMI 1640 medium containing 10% fetal bovine serum, 100 U penicillin and 100 µg/mL streptomycin. The cells were cultured in a 5% CO2 incubator at 37°C. The activities of the cells were determined by CellTiter-Glo® Luminescent Cell Viability Assay kit (Promega, article number: G7573).
The experimental methods were operated according to the steps in the kit instruction, and were briefly described as follows: a test compound was first dissolved in DMSO to prepare a storage solution, and then diluted in gradient with the corresponding cell culture medium to prepare a test sample. A final concentration of the compound ranged from 1 µM to 0.15 nM. […] After the culture, 50 µL of CellTiter-Glo detection solution was added to each well, shaken for 5 minutes, and then stood for 10 minutes, and the luminescence values of each well were read on the microplate reader using a Luminance mode. […]

[2] = molecular target: T1, TRKA(G595R) (Homo sapiens, UniProt P04629, G595R); assay: HTRF KinEASE-TK kinase activity inhibition assay, TRKA(G595R); type: biochemical; conditions: ATP 7 µM
T1 construct: purchased SignalChem N16-12BG-10
From the text: (§1) The following method was used to determine the inhibition degrees of the compounds of the present invention on the activity of recombinant human NTRK family kinase in vitro. In this method, HTRF®KinEASE-TK tyrosine kinase kit (article number: 62TK0PEB) of Cisbio company was used, and the principle of the kit was based on time-resolved fluorescence resonance energy transfer (TF-FRET), and the inhibition of the compounds on the activity of the NTRK kinase was reflected by determining a phosphorylation degree of a biotinylated polypeptide substrate mediated by NTRK kinase. For detailed experimental operation, please refer to the kit instruction. Recombinant human wild-type NTRK proteins were purchased from Carna bioscience (the article numbers were TRKA #08-186, TRKB #08-187 and TRKC #08-197 respectively), and recombinant human mutant NTRK proteins were purchased from SignalChem (the article numbers were TRKA G595R #N16-12BG-10, TRKA G667C # N16-12CG-10, and TRKC G623R # N18-12CH-10 respectively).
(§2) The experimental methods were operated according to the steps in the kit instruction, and were briefly described as follows: a test compound was first dissolved in DMSO to prepare a storage solution, and then diluted in gradient with a buffer provided in the kit. A final concentration of the test compound in the reaction system ranged from 1,000 nM to 0.004 nM. An ATP Km value concentration of each NTRK protein was determined by using an ATP solution diluted in gradient (Sangon Biotech (Shanghai) Co., Ltd., A600311). According to the Km value obtained, the ATP concentrations in the reaction system were set as 100 µM for TRKA, 10 µM for TRKB, 50 µM for TRKC, 7 µM for TRKA(G595R), 1 µM for TRKA(G667C) and 100 µM for TRKC(G623R). The reaction was carried out in a 384-well microplate. Firstly, the compound and a certain amount of corresponding NTRK protein were added to the wells and incubated for 5 minutes to 10 minutes at room temperature. Then, the ATP solution and the biotinylated polypeptide substrate solution were added to the reaction solution and incubated with shaking at room temperature for 60 minutes. Then, an anti-phosphorylated tyrosine antibody coupled with a europium compound and streptavidin coupled with modified allophycocyanin XL665 were added to the reaction, and continuously incubated with shaking at room temperature for 1 hour. After incubation, fluorescence intensity values of each well at an excitation wavelength of 304 nm, and emission wavelengths of 620 nm and 665 nM were determined in a TF-FRET mode on a microplate reader. Compared with the fluorescence intensity ratio of a control group (0.1% DMSO), the percentage inhibition rates of the compound at each concentration were calculated, and the IC50 value of the compound was obtained by performing nonlinear regression analysis for logarithmic value of the compound concentration - inhibition rate by GraphPad Prism 5 software, which can be seen in Table 1. Table 1 IC50 data of the compounds of the present invention on TRK enzyme activity inhibition

[3] = system: BAF3 LMNA-TRKA^G595R; assay: Cell proliferation assay (CellTiter-Glo), BAF3 LMNA-TRKA G595R; type: cell-based; conditions: Mus musculus, 72 hours
Protocol: The following method was used to determine the effects of the compounds of the present invention on cell proliferation. […] For TRKA, BAF3 LMNA-TRKA^G595R stably transformed cell line was constructed by BAF3 cells. The above cell line was used to determine the inhibition of the compounds on cell activity. […] The cells were cultured in a 5% CO2 incubator at 37°C. The activity of the cells were determined by CellTiter-Glo® Luminescent Cell Viability Assay kit (Promega, article number: G7573).
The experimental methods were operated according to the steps in the kit instruction, and were briefly described as follows: a test compound was first dissolved in DMSO to prepare a storage solution, and then diluted in gradient with the corresponding cell culture medium to prepare a test sample. […] Cells in logarithmic growth phase were inoculated into a 96-well cell culture plate at a suitable density, and the cells were cultured in a 5% CO2 incubator at 37°C overnight. After adding the sample of the test compound, the cells were continuously cultured for 72 hours. After the culture, 50 µL of CellTiter-Glo detection solution was added to each well, shaken for 5 minutes, and then stood for 10 minutes, and the luminescence values of each well were read on the microplate reader using a Luminance mode.

[4] = molecular target: T2, TRKC (Homo sapiens, UniProt Q16288); assay: HTRF KinEASE-TK kinase activity inhibition assay, TRKC; type: biochemical; conditions: ATP 50 µM
T2 construct: purchased Carna bioscience 08-197
From the text: as §1, §2

T2 sequence (Q16288 32-839): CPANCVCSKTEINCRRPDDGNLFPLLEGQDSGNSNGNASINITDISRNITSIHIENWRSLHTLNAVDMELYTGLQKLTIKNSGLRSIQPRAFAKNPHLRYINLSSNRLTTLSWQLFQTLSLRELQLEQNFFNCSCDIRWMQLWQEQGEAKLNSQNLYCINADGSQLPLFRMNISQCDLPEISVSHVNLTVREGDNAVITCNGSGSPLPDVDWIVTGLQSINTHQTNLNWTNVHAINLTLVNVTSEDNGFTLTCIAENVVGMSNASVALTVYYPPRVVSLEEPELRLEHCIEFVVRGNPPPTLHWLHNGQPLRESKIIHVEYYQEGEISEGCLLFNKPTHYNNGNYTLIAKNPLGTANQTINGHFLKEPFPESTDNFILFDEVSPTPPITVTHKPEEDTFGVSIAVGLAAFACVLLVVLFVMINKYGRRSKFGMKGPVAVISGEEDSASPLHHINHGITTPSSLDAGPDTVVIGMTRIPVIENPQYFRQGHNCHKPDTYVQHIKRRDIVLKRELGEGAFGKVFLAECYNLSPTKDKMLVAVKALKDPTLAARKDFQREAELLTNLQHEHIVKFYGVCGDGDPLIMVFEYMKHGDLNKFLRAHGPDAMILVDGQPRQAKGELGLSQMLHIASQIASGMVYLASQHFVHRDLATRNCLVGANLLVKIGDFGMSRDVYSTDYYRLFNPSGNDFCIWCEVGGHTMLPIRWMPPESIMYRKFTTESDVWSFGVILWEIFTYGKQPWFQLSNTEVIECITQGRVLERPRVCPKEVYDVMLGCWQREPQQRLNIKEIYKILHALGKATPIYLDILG
T1 sequence (P04629 33-796 G595R): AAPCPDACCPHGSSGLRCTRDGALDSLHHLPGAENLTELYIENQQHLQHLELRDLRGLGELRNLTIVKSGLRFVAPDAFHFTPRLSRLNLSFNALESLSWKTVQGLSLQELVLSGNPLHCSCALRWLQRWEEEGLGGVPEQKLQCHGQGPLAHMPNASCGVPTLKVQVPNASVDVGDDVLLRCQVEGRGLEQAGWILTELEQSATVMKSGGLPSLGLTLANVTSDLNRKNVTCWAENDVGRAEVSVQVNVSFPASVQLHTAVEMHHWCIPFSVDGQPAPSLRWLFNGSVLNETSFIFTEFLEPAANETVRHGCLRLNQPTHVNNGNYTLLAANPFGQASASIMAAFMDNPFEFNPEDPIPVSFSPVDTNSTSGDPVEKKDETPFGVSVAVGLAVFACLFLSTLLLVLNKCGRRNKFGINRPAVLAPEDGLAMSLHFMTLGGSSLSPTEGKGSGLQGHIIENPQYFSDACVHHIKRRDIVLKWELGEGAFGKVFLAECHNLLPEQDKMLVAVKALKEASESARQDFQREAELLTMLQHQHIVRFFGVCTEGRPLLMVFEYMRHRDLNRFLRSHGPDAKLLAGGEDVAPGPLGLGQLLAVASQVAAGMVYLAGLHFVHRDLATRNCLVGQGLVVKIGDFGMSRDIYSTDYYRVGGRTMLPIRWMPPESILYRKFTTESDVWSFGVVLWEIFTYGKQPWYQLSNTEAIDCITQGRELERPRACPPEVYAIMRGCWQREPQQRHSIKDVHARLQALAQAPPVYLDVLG

Row | Structure (SMILES) | IC50 [1] | IC50 [2] | IC50 [3] | IC50 [4]
1 | C[C@H]1Nc2ccn3ncc(c3n2)C(=O)NC[C@@]2(C)Cc3cc(F)cc1c3O2 [Example 8, (3R,11R)-6-fluoro-3,11-dimethyl-10-oxa-2,13,17,1 8,21-pentaazapentacyclo[13.5.2.1^8,11.0^4,9.0^18,22]tric osa-1(21),4,6,8,15(22),16,19-heptaen-14-one] | 1.5 nM | 2.03 nM | 3.1 nM | 0.22 nM
2 | C[C@H]1Nc2ccn3nc(N)c(c3n2)C(=O)NC[C@@]2(C)Cc3cc(F)cc1c3O2 [Example 25, (3R,11R)-16-amino-6-fluoro-3,11-dimethyl-10-oxa-2,13,17,18,21-pentaazapentacyclo[13.5.2.1^8,11.0^4,9. 0^18,22]tricosa-1(21),4,6,8,15(22),16,19-heptaen-14-one] | 1.2 nM | 5.4 nM | 2.2 nM | 0.7 nM
